The numbers were not newly measured in patent US6642179B2, “Inhibition of vegetative growth” (priority 2000, dated 2003), which cites them from elsewhere.

The structures appear in SMILES notation.

The data set relates to grass. Particulars: versus 5-acetamido-2-methyltrifluoromethanesulfonanilide.

As to `CC(=O)Nc1cc(NS(=O)(=O)C(F)(F)F)c(C)cc1C` [5-acetamido-2,4-dimethyltrifluoromethanesulfonanilide], the “effectiveness as grass growth regulator compared with 5-acetamido-2-methyltrifluoromethanesulfonanilide” value was “much more effective grass growth regulator”.
